Experiment [1] deals with T1, CDK2/CycA (Homo sapiens, UniProt P24941).
T1 construct: 6His (C); made in house; host or cells: baculovirus expression system
Put plainly: Serine/threonine kinase profiling ([γ-32P] ATP), CDK2. It counts as biochemical. As to the method:
(§1) Assays for 4 serine/threonine kinases using radio labeled [γ-^32P] ATP (GE Healthcare, Piscataway, NJ) were performed in 96 well plates. Mitogen-activated protein kinase p38α (p38α), was expressed as N-terminal FLAG-tagged protein using a baculovirus expression system. Aurora-A and -B were expressed as N-terminal 6xHis tagged protein using a baculovirus expression system. CDK2/CycA was expressed as C-terminal 6His-tagged CDK2, and N-terminal GST-tagged Cyclin A protein using a baculovirus expression system.
(§2) The reaction conditions were optimized for each kinase: p38α (100 ng/well of enzyme, 1 μg/well of MBP (Wako Pure Chemical Ind., Osaka, Japan), 0.1 μCi/well of [γ-^32P] ATP, 60 min reaction at 30 ℃); Aurora-A and -B (50 ng/well of enzyme, 30 μM of Aurora substrate peptide, 0.2 μCi/well of [γ-^32P] ATP, 60 min reaction at room temperature); CDK2/CycA (1.8 mUnits/well of enzyme, 1 μg/well of Histone H1 (Calbiochem), 0.2 μCi/well of [γ-^32P] ATP, 20 min reaction at room temperature).
(§3) All the four enzyme reactions were performed in 25 mM HEPES, pH 7.5, 10 mM magnesium acetate, 1 mM dithiothreitol and 0.5 μM ATP containing optimized concentration of enzyme, substrate and radiolabeled ATP as described above in a total volume of 50 μl. […] The radioactivity was counted by a TopCount scintillation counter (PerkinElmer).

Experiment [2] relates to A549 cells. Put plainly: Antiproliferation WST-1 assay, A549. It counts as cell-based, human. The settings on record: WST-1 assay; A549 carcinomic human alveolar basal epithelial cell; read-out: Cellular IC50, A549. As to the method: (§4) WST-1 is better than MTT for analyzing cell proliferation, because it can be reduced to soluble formazan by dehydrogenase in mitochondria and has little toxicity to cells. Cell proliferation was determined using WST-1 dye (Beyotime Inst Biotech, China) according to manufacture’s instructions. Brieﬂy, 5 × 10^3 cells per well were seeded in a 96-well plate, grown at 37 ℃ for 24 h, and then placed in serum-starved conditions for a further 6 h. Subsequently, cells were treated with compounds (Table 1) at increasing concentrations in the presence of 10% FBS for 24 or 48h. After 10 µL WST-1 dye was added to each well, cells were incubated at 37 ℃ for 2 h and the absorbance was ﬁnally determined at 450 nm using a microplate reader.
(Tetrazolium assays rely on reduction of a dye to a coloured formazan, in cell work by metabolically active cells.)

For experiment [3], the target named is T2, human HER2 (Homo sapiens, UniProt P04626).
T2 construct: The cytoplasmic domain (amino acids 676-1255) of human HER2; FLAG (DYKDDDD) (N); made in house
Put plainly: HER2 kinase assay ([γ-32P] ATP, poly-Glu-Tyr). Format: biochemical. The settings on record: phosphorylation of poly-Glu-Tyr copolymer; mean, >1 determination; read-out: Enzyme activity IC50 against HER2 kinase. The method, then: The expressed HER2 kinase and EGFR kinase were purified by anti-FLAG M2 affinity gel (Sigma-Aldrich, USA). The HER2 and EGFR kinase assays were performed using radiolabeled [γ-^32P] ATP (GEHealthcare, USA) in 96-well plates. The kinase reactions were performed in 50 mmol/L Tris-HCl, pH7.5, 5 mmol/L MnCl2, 0.01% Tween-20 and 2 mmol/L DTT containing 0.9 μCi of [γ-^32P] ATP per reaction, 50 μmol/L ATP, 5 μg/mL poly-Glu-Tyr (4:1) and 0.25 μg/mL of purified Her2 or EGFR cytoplasmic domain in a total volume of 50 μL. […] Kinase reactions were initiated by adding ATP. After the kinase reaction incubated for 10 minutes at room temperature, reactions were terminated by the addition of 10% (final concentration) trichloroacetic acid. The [γ-^32P]-phosphorylated proteins were filtered in a harvest plate (Millipore, USA) with a cell harvester (PerkinElmer, USA) and washed free of [γ-^32P] ATP with 3% phosphoric acid. The plates were dried, followed by the addition of 25 μL of MicroScintO (PerkinElmer, USA). Radioactivity was counted by a Topcount scintillation counter (PerkinElmer, USA).

In experiment [4] the target is T3, Aurora A (Homo sapiens, UniProt O14965).
T3 construct: 6xHis (N); made in house; host or cells: baculovirus expression system
T3 sequence (O14965 1-403): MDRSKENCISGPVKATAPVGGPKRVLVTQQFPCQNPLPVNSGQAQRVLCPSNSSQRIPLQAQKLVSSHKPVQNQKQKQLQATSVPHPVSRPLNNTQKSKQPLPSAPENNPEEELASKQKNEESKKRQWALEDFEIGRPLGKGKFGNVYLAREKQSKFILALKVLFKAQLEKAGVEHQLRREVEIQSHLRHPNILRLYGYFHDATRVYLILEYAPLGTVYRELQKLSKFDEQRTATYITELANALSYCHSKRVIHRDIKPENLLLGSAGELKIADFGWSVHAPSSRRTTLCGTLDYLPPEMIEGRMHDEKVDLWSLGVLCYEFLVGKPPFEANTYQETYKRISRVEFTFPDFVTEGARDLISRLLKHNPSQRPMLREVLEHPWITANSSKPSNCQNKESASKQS
Put plainly: Serine/threonine kinase profiling ([γ-32P] ATP), Aurora A. Format: biochemical. To be noted: ATP concentration = Km. As to the method: as §1, §2, §3

Experiment [5] deals with several key kinases close to EGFR/HER2. Put plainly: Kinase selectivity profile. It counts as biochemical. To be noted: versus EGFR/HER2. The method, then:
as §1
The cytoplasmic domain of vascular endothelial growth factor receptor 2 (VEGFR2), platelet-derived growth factor receptor α (PDGFRα), cSRC were purchased from Millipore Corp. Assays for 3 tyrosine kinases were performed in 384 well plates using the Alphascreen® system (PerkinElmer) at room temperature. Enzyme reactions were performed in 50 mM Tris–HCl, pH7.5, 5 mM MnCl2, 5 mM MgCl2, 0.01% Tween-20, 2 mM dithiothreitol and 0.1 μg/ml biotinylated poly-GluTyr (4:1) containing optimized concentration of enzyme and ATP as described below.

Experiment [6] deals with H1975 cells. Put plainly: Antiproliferation WST-1 assay, H1975. Format: cell-based. To be noted: Homo sapiens, NCI-H1975, NSCLC, EGFR L858R/T790M. As to the method: as §4
The subject of experiment [7] is A431 cells. Put plainly: Antiproliferation WST-1 assay, A431. It counts as cell-based, human. The settings on record: Homo sapiens, A-431, WST-1 assay; A431, overexpression of EGFR; read-out: Cellular IC50, A431. The method, then: as §4
In experiment [8] the test system is MDA-MB-453 cells. Put plainly: Antiproliferation WST-1 assay, MDA-MB-453. It counts as cell-based. To be noted: Homo sapiens, breast cancer, HER-2++, PTEN deficiency. The method, then: as §4

T2 sequence (P04626 676-1255): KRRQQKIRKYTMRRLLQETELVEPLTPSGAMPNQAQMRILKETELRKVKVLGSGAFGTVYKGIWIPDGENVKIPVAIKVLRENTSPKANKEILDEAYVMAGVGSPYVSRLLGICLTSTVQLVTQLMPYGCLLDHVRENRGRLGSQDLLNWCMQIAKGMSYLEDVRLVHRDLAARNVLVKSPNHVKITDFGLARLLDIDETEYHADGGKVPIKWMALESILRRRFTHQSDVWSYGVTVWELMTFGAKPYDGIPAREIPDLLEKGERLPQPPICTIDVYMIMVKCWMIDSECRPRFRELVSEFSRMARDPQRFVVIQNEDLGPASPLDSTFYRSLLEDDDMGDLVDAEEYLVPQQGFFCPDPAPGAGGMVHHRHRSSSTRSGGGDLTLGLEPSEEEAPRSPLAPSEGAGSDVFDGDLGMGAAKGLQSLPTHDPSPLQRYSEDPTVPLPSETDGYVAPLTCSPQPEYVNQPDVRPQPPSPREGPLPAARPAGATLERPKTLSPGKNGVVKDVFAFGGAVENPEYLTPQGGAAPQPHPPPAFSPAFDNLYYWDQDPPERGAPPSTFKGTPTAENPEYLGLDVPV

`O=C(Nc1ccc2ncnc(Nc3cccc(Br)c3)c2c1)c1ccc(C(F)(F)F)cc1O` [Compound 21, N-(4-(3-bromophenylamino)quinazolin-6-yl)-2-hydroxy-4-(trifluoromethyl)benzamide]: the IC50 in experiment [1] (ATP concentration = Km) is 3.5 µM; in experiment [2] it was 1640 ± 27 nM; in experiment [3], 96 ± 4 nM; in experiment [4], 58.4 ± 0.78 µM; in experiment [6], 3.3 ± 0.233 µM; in experiment [7] it was 670 ± 2 nM. Inhibition in experiment [8] was half-maximal at 920 ± 19 nM (IC50). Moreover, the “pIC50 CDK2” value in experiment [1] (converted from IC50 by online calculator) was 5.46. The “selectivity against major of other kinases screened” value in experiment [5] is reported as “more than 100 fold”.

The IC50 is the midpoint of a concentration-inhibition curve.

Source of the values: PMC3731256, “Optimization of Substituted 6-Salicyl-4-Anilinoquinazoline Derivatives as Dual EGFR/HER2 Tyrosine Kinase Inhibitors” (PLoS ONE, 2013).
